The values below come from US6218379A, “Tricyclic carbacephems” (Hoffmann-la Roche Inc., priority 1996, dated 2001).

Assay [1] relates to Citrobacter freundii 1982. Put plainly: Antibacterial activity in vitro (MIC) against Citrobacter freundii 1982. Format: cell-based. Particulars: read-out: MIC C. freundii 1982. The procedure:
(§1) The minimum inhibitory concentration in vitro (MIC in μg/ml) of a compound of formula I against Citrobacter freundii 1982 and Staphylococcus aureus 887 is measured and compiled in Table 2.

In assay [2] the test system is Staphylococcus aureus 887. Put plainly: Antibacterial activity in vitro (MIC) against Staphylococcus aureus 887. Format: cell-based. Particulars: read-out: MIC S. aureus 887. The method, then:
as §1

By MIC is commonly meant the lowest concentration that inhibits growth of the organism.

Converted amounts (≈) assume the structure as drawn.

`CC(=O)N1C[C@H]2CC(/C=C/c3ccc[n+](CC(N)=O)c3)=C(C(=O)[O-])N3C(=O)[C@@H]1[C@@H]23` [Example 67, (E)-(1aS,3aR,6bR)-2-Acetyl-5-[2-(1-carbamoylmethyl-pyridin-1-ium-3-yl)-vinyl]-1-oxo-1a,2,3,3a,4,6b-hexahydro-1H-2,6a-diaza-cyclobut[cd]indene-6-carboxylate]: the MIC in assay [1] was found to be 16 µg/mL (≈ 40.4 µM); in assay [2] it was 0.25 µg/mL (≈ 0.631 µM).

With `CC(=O)N1C[C@H]2CC(/C=C/c3cc4ccccc4[n+](CC(N)=O)c3)=C(C(=O)[O-])N3C(=O)[C@@H]1[C@@H]23` [Example 68, (E)-(1aS,3aR,6bR)-2-Acetyl-5-[2-(1-carbamoylmethyl-quinolin-1-ium-3-yl)-vinyl]-1-oxo-1a,2,3,3a,4,6b-hexahydro-1H-2,6a-diaza-cyclobut[cd]indene-6-carboxylate], the values for the MIC in assay [1] and in assay [2] were 16 µg/mL (≈ 35.8 µM) and 0.5 µg/mL (≈ 1.12 µM), respectively.

Turning to `CC(=O)N1C[C@H]2CC(/C=C/c3ccc[n+](C/C=C/c4ccccc4)c3)=C(C(=O)[O-])N3C(=O)[C@@H]1[C@@H]23` [Example 69, (1aS,3aR,6bR)-2-Acetyl-1-oxo-5-[(E)-2-[1-[(E)-3-phenylallyl]-pyridin-1-ium-3-yl)-vinyl]-1a,2,3,3a,4,6b-hexahydro-1H-2,6a-diaza-cyclobut[cd]indene-6-carboxylate], the minimum inhibitory concentration (MIC) in assay [1] worked out at 32 µg/mL (≈ 70.3 µM); in assay [2] it was 0.25 µg/mL (≈ 0.549 µM).

Regarding `CC(=O)N1C[C@H]2CC(/C=C/c3ccc[n+](CC(=O)Nc4ccc(O)cc4)c3)=C(C(=O)[O-])N3C(=O)[C@@H]1[C@@H]23` [Example 70, (E)-(1aS,3aR,6bR)-2-Acetyl-5-[2-[1-[(4-hydroxyphenylcarbamoyl)-methyl]-pyridin-1-ium-3-yl)-vinyl]-1-oxo-1a,2,3,3a,4,6b-hexahydro-1H-2,6a-diaza-cyclobut[cd]indene-6-carboxylate], the MIC worked out at 8 µg/mL (≈ 16.4 µM) in assay [1] and 0.25 µg/mL (≈ 0.512 µM) in assay [2].

With `CC(=O)N1C[C@H]2CC(/C=C/c3ccc[n+](Cc4ccc(OC(F)(F)F)cc4)c3)=C(C(=O)[O-])N3C(=O)[C@@H]1[C@@H]23` [Example 71], the MIC in assay [1] is 64 µg/mL (≈ 125 µM); in assay [2], 0.5 µg/mL (≈ 0.974 µM).

Regarding `CC(=O)N1C[C@H]2CC(/C=C/c3cccc[n+]3CC(N)=O)=C(C(=O)[O-])N3C(=O)[C@@H]1[C@@H]23` [Example 72, (E)-(1aS,3aR,6bR)-2-Acetyl-5-[2-(1-carbamoylmethyl-pyridin-1-ium-2-yl)-vinyl]-1-oxo-1a,2,3,3a,4,6b-hexahydro-1H-2,6a-diaza-cyclobut[cd]indene-6-carboxylate], the MIC in assay [1] and in assay [2] was 64 µg/mL (≈ 161 µM) throughout.
